{
  "source": "patent US20240201204A1",
  "about": "“Biomarker and Druggable Target of Neurodegeneration” (University Hospitals Cleveland Medical Center, priority 2020, published 2024)",
  "key": {"[1]": {"assay": "Diflunisal stability in plasma and brain homogenate", "format": "in vitro ADME", "conditions": "mouse plasma and brain homogenate, 37° C., 5% CO2, over 6 hours", "description": "(§1) Diflunisal protein binding: Protein binding of diflunisal in mouse plasma or brain homogenate was determined by rapid equilibrium dialysis using RED chambers (Thermo Scientific, Waltham, MA). On the day of the RED experiment, frozen mouse plasma and 4× homogenized brain was thawed in a water bath at 37° C. Then it was equilibrated for 45 minutes at 37° C. in an atmosphere of 5% CO2. The pH of PBS was confirmed within 7.4±0.1. The pH of plasma and brain was measured and adjusted to 7.4±0.1 using concentrated acid or base. Plasma and brain diluted at 1:20 (final) with PBS and used for all subsequent steps. An aliquot of plasma or brain was spiked with compound to a compound concentration of 5 μM and vortex mixed. […] Donor, dialysate, and plasma or brain stability samples were analyzed by using a matrix matching approach whereby each sample was mixed in a 1:1 ratio with the opposite medium (blank matrix or PBS). […] Diflunisal levels in both chambers were measured by LC-MS/MS in comparison to a standard curve prepared in 1:1 matrix: PBS as described above. For each matrix, stability was assessed by maintaining individual aliquots of compound-spiked matrix at 37° C. and 5% CO2 for 0 and 6 hours. […] Stability of diflunisal in plasma and brain was 99% over 6 hours as assessed by LC-MS/MS. Fraction unbound (fu) was determined based on the following equations: […]"}, "[2]": {"assay": "Diflunisal protein binding by rapid equilibrium dialysis", "format": "in vitro ADME, mouse", "conditions": "diluted 1:20 (final) with PBS, 37° C.", "description": "as §1"}, "[3]": {"conditions": "500 mg diflunisal twice daily for 11 days; cited from earlier work"}, "[4]": {"tested_on": "clinically-diagnosed TBI", "assay": "Pharmacoepidemiologic cohort analysis (MarketScan Medicare Supplemental database), incidence of TBI", "format": "in vivo, human", "conditions": "vs. PS-matched aspirin cohort, Cox regression model, 6 years of follow-up", "text": "(§2) Because ac-tau has been generally reported in the brains of subjects with AD, we evaluated the relationship between salsalate or diflunisal use and incidence of clinically-diagnosed TBI or AD by analyzing 7.23 million U.S. commercially-insured individuals (MarketScan Medicare Supplemental database). We conducted two cohort analyses to evaluate the predicted association, based on individual level of longitudinal patient data and pharmacoepidemiologic methods, as previously established (Cheng et al., 2018). Thus, our two cohorts included: (1) salsalate vs. a matched aspirin population and (2) diflunisal vs. a matched aspirin population (Table 2). For each comparison, we estimated the un-stratified Kaplan-Meier curves and conducted propensity score (PS) stratified (n strata=10) log-rank tests and a Cox regression model after adjusting age, race, sex, and disease comorbidities (including diabetes, hypertension, and coronary artery disease) using a propensity score-matching method (Methods).\nStudy cohorts. The IBM® MarketScan® Medicare Supplemental Database is one of the first in the U.S. to profile the healthcare experience of retirees with Medicare supplemental insurance paid by employers. The MarketScan Medicare Supplemental Database provides detailed cost, use and outcomes data for healthcare services performed in both inpatient and outpatient settings. […]"}, "[5]": {"tested_on": "Alzheimer's disease", "assay": "Pharmacoepidemiologic cohort analysis (MarketScan Medicare Supplemental database), incidence of AD", "format": "in vivo, human", "text": "as §2\nStudy cohorts. The IBM® MarketScan® Medicare Supplemental Database is one of the first in the U.S. to profile the healthcare experience of retirees with Medicare supplemental insurance paid by employers. The MarketScan Medicare Supplemental Database provides detailed cost, use and outcomes data for healthcare services performed in both inpatient and outpatient settings. For most of the population, the medical claims are linked to outpatient prescription drug claims and person-level enrollment data through the use of unique patient or enrollee identifiers. […] This feature makes the database a robust tool for pharmacoeconomic and outcomes research and helps provide insight into the drug use and spending patterns of older Americans. In this study, the pharmacoepidemiology study utilized the MarketScan Medicare Claims database from 2012 to 2017. The dataset included individual-level diagnosis codes, procedure codes and pharmacy claim data for 7.23 million patients. Pharmacy prescriptions of salsalate, diflunisal, and aspirin were identified by using RxNorm and National Drug Code (NDC).\nOutcome measurement. For a subject, a drug episode is defined as from drug initiation to drug discontinuation. Specifically, drug initiation is defined as the first day of drug supply (i.e. 1st prescription date). Drug discontinuation is defined as the last day of drug supply (i.e. last prescription date+days of supply) and without drug supply for the next 60 days. In another word, gaps of less than 60-day of drug supply were allowed within a drug episode. The drug cohort included the first drug episode for each subject. For the final cohorts, demographic variables including age, race, sex and geographical location were collected. […]"}, "[6]": {"conditions": "in vivo", "description": "Diflunisal was administered PO and animals were euthanized at the indicated times post-dose. After peripheral blood collection, animals were perfused with 1×PBS to remove blood in the brain vasculature. Total plasma and brain levels of diflunisal were evaluated by LC-MS/MS and then converted to free drug levels after measurement of binding in mouse plasma and brain.\nDiflunisal pharmacokinetics: Diflunisal levels in mouse plasma and brain were monitored by LC-MS/MS using an AB Sciex (Framingham, MA) 4000 QTRAP® mass spectrometer coupled to a Shimadzu (Columbia, MD) Prominence LC. Diflunisal was detected with the mass spectrometer in negative MRM (multiple reaction monitoring) mode by following the precursor to fragment ion transitions 248.9 to 204.9 (quantifier ion) and 248.9 to 184.9 (qualifier ion). An Agilent C18 XDB column (5 micron, 50×4.6 mm) was used for chromatography for PK studies with the following conditions: Buffer A: dH20+0.1% formic acid, Buffer B: acetonitrile+0.1% formic acid, 0-1.0 min 5% B, 1.0-1.5 min gradient to 100% B, 1.5-3.0 min 100% B, 3.0-3.2 min gradient to 5% B, 3.2-4.5 5% B. Tolbutamide (transition 269.1 to 169.9) from Sigma (St. Louis, MO) was used as an internal standard (IS). Pharmacokinetic studies were performed by injecting 8 week old C57BL/6J male mice with diflunisal formulated in 10% DMSO, 20% Kolliphor EL, 70% saline. 60 or 180 minutes post-dose, animals were anesthetized with ketamine (100 mg/kg) and xylazine (10 mg/kg) via intraperitoneal (IP) injection. Blood was collected using the anticoagulant ACD, and then brains were harvested after transcardial perfusion with 1×PBS. Tissues were weighed before snap freezing and blood spun at 9600×g to collect plasma which was stored frozen along with brain tissue at −80° C. until analysis. […] The concentration of drug in each time-point sample was quantified using Analyst software (Sciex). […] The limit of quantitation (LOQ) was defined as the lowest concentration at which back calculation yielded a concentration within 20% of theoretical."}, "[7]": {"tested_on": "p300/CBP", "conditions": "literature (Shirakawa et al., 2016); cited from earlier work"}},
  "note": "Where two headings read alike, the source gives them in different places.",
  "data": [
    {"molecule": "O=C(O)c1cc(-c2ccc(F)cc2F)ccc1O", "note": "[diflunisal]", "values": [
      {"measurement": "stability in plasma and brain", "setting": "[1]", "value": 99, "unit": "%"},
      {"measurement": "fraction unbound at 6 h, 5 μM", "setting": "[2]; pH 7.4, mouse brain homogenate, read-out: fraction unbound in brain tissue (fubrain)", "value": "0.05 ± 0.001"},
      {"measurement": "fraction unbound at 6 h, 5 μM", "setting": "[2]; pH 7.4, mouse plasma, read-out: fraction unbound in plasma (fuplasma)", "value": "0.014 ± 0.002"},
      {"measurement": "mean peak plasma levels in humans", "setting": "[3]", "value": 190, "unit": "µg/mL"},
      {"measurement": "hazard ratio [HR], clinically-diagnosed TBI", "setting": "[4]", "value": 0.61},
      {"measurement": "incidence of AD, subgroup analysis", "setting": "[5]; excluding patients with type 2 diabetes, hypertension, or coronary artery disease, vs. aspirin", "value": "associated with decreased incidence of AD"},
      {"measurement": "hazard ratio [HR], AD", "setting": "[5]; vs. PS-matched aspirin cohort, Cox regression model, 6 years of follow-up", "value": 0.17},
      {"measurement": "penetration into mouse brain", "setting": "[6]", "value": "modest penetration of diflunisal into mouse brain"},
      {"measurement": "free drug plasma to brain ratio", "setting": "[6]; male, C57BL/6J, mouse", "value": "55:1"},
      {"measurement": "total diflunisal plasma to brain ratio", "setting": "[6]; male, C57BL/6J, mouse", "value": "about 200:1"},
      {"measurement": "inhibition of p300/CBP", "setting": "[7]", "value": "demonstrated to inhibit p300/CBP"}
    ]}
  ]
}
